Usually IC50 stands for the point on the concentration scale where inhibition reaches its midpoint.

The target in this experiment is hQC (Homo sapiens (Human), UniProt Q16769). Kind of experiment: QC inhibitor assay (fluorometric / spectrophotometric QC activity assays). It counts as biochemical. The method, then:
Excitation/emission wavelengths were 320/410 nm.
This novel assay was used to determine the kinetic parameters for most of the QC substrates. […] Samples consisted of the respective QC substrate, 0.3 mM NADH, 14 mM α-Ketoglutaric acid and 30 U/ml glutamate dehydrogenase in a final volume of 250 μl. Reactions were started by addition of QC and persued by monitoring of the decrease in absorbance at 340 nm for 8-15 min.
All samples were measured at 30° C., using either the […]uor Plus or the Sunrise (both from TECAN) reader for microplates. Kinetic data was evaluated using GraFit software.
For inhibitor testing, the sample composition was the same as described above, except of the putative inhibitory compound added. For a rapid test of QC-inhibition, samples contained 4 mM of the respective inhibitor and a substrate concentration at 1 KM. For detailed investigations of the inhibition and determination of K,-values, influence of the inhibitor on the auxiliary enzymes was investigated first. […] The inhibitory constant was evaluated by fitting the set of progress curves to the general equation for competitive inhibition using GraFit software.

Chain of hQC (Q16769 29-361): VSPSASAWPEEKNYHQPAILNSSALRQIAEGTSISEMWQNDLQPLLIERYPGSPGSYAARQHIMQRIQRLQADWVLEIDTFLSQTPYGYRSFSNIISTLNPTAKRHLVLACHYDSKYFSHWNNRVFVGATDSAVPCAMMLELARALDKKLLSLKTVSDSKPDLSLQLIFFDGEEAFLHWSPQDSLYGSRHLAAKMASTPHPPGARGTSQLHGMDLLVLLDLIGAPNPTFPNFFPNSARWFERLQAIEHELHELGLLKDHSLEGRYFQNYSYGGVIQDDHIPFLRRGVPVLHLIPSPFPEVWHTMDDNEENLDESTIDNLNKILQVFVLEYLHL

`O=C1NCC(c2ccccc2)N1c1ccc2[nH]cnc2c1` (centres unmarked) [Example 3, 1-(1H-benzo[d]imidazol-5-yl)-5-phenylimidazolidin-2-one] gave an IC50 below 10 µM.
Regarding `O=C1NCC(C2CCCCC2)N1c1ccc2[nH]cnc2c1` (centres unmarked) [Example 2, 1-(1H-benzo[d]imidazol-5-yl)-5-cyclohexylimidazolidin-2-one], the IC50 is below 10 µM.
The value for `CC(C)[C@H]1COC(=O)N1c1ccc2[nH]cnc2c1` [Example 68, (S)-3-(1H-benzo[d]imidazol-5-yl)-4-isopropyloxazolidin-2-one] was below 10 µM; that for `O=C1CSC(c2ccsc2)N1c1ccc2nc[nH]c2c1` (centres unmarked) [Example 116, 3-(1H-benzo[d]imidazol-6-yl)-2-(thiophen-3-yl)thiazolidin-4-one] was below 10 µM; that for `COc1ccc(C2CCCN2c2ccc3[nH]cnc3c2)cc1` (centres unmarked) [Example 102, 5-(2-(4-methoxyphenyl)pyrrolidin-1-yl)-1H-benzo[d]imidazole] was below 10 µM.
Then `COc1ccc(C2CNC(=O)N2c2ccc3[nH]cnc3c2)cc1` (centres unmarked) [Example 5, 1-(1H-benzo[d]imidazol-5-yl)-5-(4-methoxyphenyl)imidazolidin-2-one], with below 10 µM.
`O=C1NCC(c2ccc(N3CCCCC3)cc2)N1c1ccc2[nH]cnc2c1` (centres unmarked) [Example 175, 1-(1H-benzo[d]imidazol-5-yl)-5-(4-(piperidin-1-yl)phenyl)imidazolidin-2-one]: the IC50 is below 10 µM.
Then `S=C1CSC(c2ccccc2)N1c1ccc2[nH]cnc2c1` (centres unmarked) [Example 118, 3-(1H-benzo[d]imidazol-5-yl)-2-phenylthiazolidine-4-thione], with below 10 µM.

For the origin of these results see patent publication US8486940B2, “Inhibitors” (Probiodrug AG, priority 2009, dated 2013).
